MIC data for eight compounds are collected here from patent US10760110B2, “Antibiotic testing and screening system” (priority 2017, dated 2020).

Values after ≈ are worked out from the molar mass of the structure shown. Where two headings read alike, the source gives them in different places.

The test system of assay [1] is K. pneumoniae NVT1001 and its ΔompK35/36 and/or ΔramR mutants. Put plainly: Etest MIC, OmpK35/36 loss and AcrAB-TolC overexpression (ΔramR) strains (Table 6). The assay is classed as cell-based, Klebsiella pneumoniae. As for the experimental part: (§1) The MICs of antibiotics were determined using the Etest (Biodisk AB, Sweden) according to the manufacturer's instructions. The MICs from the Etest, which fall between standard two-fold dilutions, were rounded up to the next highest two-fold value. The MICs of ceftazidime and cefotaxime against K. pneumoniae NVT1001 harbouring the pACYC177 plasmid with blaOXA-48 were further determined using a broth microdilution test according to the recommendations of the CLSI,^25 and the results were interpreted according to the breakpoints established by the CLSI in 2017.^25 Meanwhile, due to the lack of CLSI breakpoints in 2016 and 2017, the results for cephalothin were interpreted according to the breakpoints established by the CLSI in 2015,^26 and the results for moxifloxacin were interpreted according to the breakpoints established by the EUCAST in 2017.^27

Assay [2] deals with K. pneumoniae NVT1001 ΔramRΔompK35/36 mutant and its revertants. Put plainly: Etest MIC, ΔramRΔompK35/36 mutant and its revertants (Table 7). The following applies: Klebsiella pneumoniae. The assay is classed as cell-based.
Excerpt: The allelic-exchange method was used to restore the wild-type gene in the K. pneumoniae NVT1001 mutants with constructed chromosome-mediated resistance mechanisms, as described by Tsai et al.^19 Briefly, a DNA fragment of the entire wild-type gene sequence along with flanking regions was amplified from K. pneumoniae NVT1001 using PCR with specific primers. The resulting PCR fragment was digested and then cloned into pUT-KB. For homologous recombination, this plasmid was transformed into E. coli S17-1 λpir^23 via electroporation and mobilized into the K. pneumoniae NVT1001 mutant via conjugation. […] After incubation in 20 mL BHI broth for 6 hours at 37° C. in the absence of kanamycin, the fully grown cultures were spread onto LB agar plates supplemented with 10% sucrose. After the double crossover occurred, the sucrose-resistant and kanamycin-susceptible colonies were selected, and the restoration of the wild-type gene was confirmed via DNA sequencing.
as §1

The mark [3] stands for this setting: Klebsiella pneumoniae, Δ35, ΔompK35 mutant.
[4] abbreviates: Klebsiella pneumoniae, Δ35/36, ΔompK35/36 mutant.
The mark [5] stands for this setting: Klebsiella pneumoniae, Δ36, ΔompK36 mutant.
Setting [6] is: Klebsiella pneumoniae, ΔramR mutant.
Where [7] appears, read: Klebsiella pneumoniae, ΔramRΔ35, ΔramRΔompK35 mutant.
The mark [8] stands for this setting: Klebsiella pneumoniae, ΔramRΔ35/36, ΔramRΔompK35/36 mutant.
The mark [9] stands for this setting: Klebsiella pneumoniae, ΔramRΔ36, ΔramRΔompK36 mutant.
The mark [10] stands for this setting: ΔramRΔompK35/36::ompK35/36 revertant.
The mark [11] stands for this setting: ΔramRΔompK35/36::ompK35 revertant.
Setting [12] is: ΔramRΔompK35/36::ompK36 revertant.
The mark [13] stands for this setting: ΔramRΔompK35/36::ramR revertant.
Setting [14] is: ΔramRΔompK35/36::ramR::ompK35/36 revertant.
Where [15] appears, read: ΔramRΔompK35/36::ramR::ompK35 revertant.
[16] abbreviates: ΔramRΔompK35/36::ramR::ompK36 revertant.
Setting [17] is: Klebsiella pneumoniae, WT, NVT1001, read-out: MIC.
The mark [18] stands for this setting: ΔramRΔ35/36, ΔramRΔompK35/36 mutant.

For `O=C(N[C@H](CO)[C@H](O)c1ccc([N+](=O)[O-])cc1)C(Cl)Cl` [Chloramphenicol], the MIC in assay [1] (Klebsiella pneumoniae, WT, NVT1001) was determined as 8 µg/mL (≈ 24.8 µM); in assay [1] (setting [3]), 8 µg/mL (≈ 24.8 µM); in assay [1] (setting [4]), 8 µg/mL (≈ 24.8 µM); in assay [1] (setting [5]), 8 µg/mL (≈ 24.8 µM); in assay [1] (setting [6]) it was 128 µg/mL (≈ 396 µM); in assay [1] (setting [7]), 128 µg/mL (≈ 396 µM). The minimum inhibitory concentration (MIC) worked out at 128 µg/mL (≈ 396 µM) in assay [1] (setting [8]); 128 µg/mL (≈ 396 µM) in assay [1] (setting [9]); 64 µg/mL in assay [2] (setting [10]); 128 µg/mL in assay [2] (setting [11]); 64 µg/mL in assay [2] (setting [12]); 8 µg/mL in assay [2] (setting [13]). The minimum inhibitory concentration (MIC) was found to be 4 µg/mL in assay [2] (setting [14]), 4 µg/mL in assay [2] (setting [15]), 8 µg/mL in assay [2] (setting [16]) and 128 µg/mL in assay [2] (ΔramRΔompK35/36 mutant).
Take `C[C@@H]1O[C@@H]1P(=O)(O)O` [Fosfomycin]: the minimal inhibitory concentration (MIC) in assay [1] (setting [17]) stood at 128 µg/mL (≈ 927 µM); in assay [1] (setting [3]), 128 µg/mL (≈ 927 µM); in assay [1] (setting [4]), 512 µg/mL (≈ 3710 µM); in assay [1] (setting [5]) it was 256 µg/mL (≈ 1850 µM); in assay [1] (setting [6]), 64 µg/mL (≈ 464 µM); in assay [1] (setting [7]), 128 µg/mL (≈ 927 µM). Moreover, the MIC in assay [1] (setting [8]) is greater than 1020 µg/mL; in assay [1] (setting [9]), 512 µg/mL (≈ 3710 µM); in assay [2] (setting [10]) it was 64 µg/mL; in assay [2] (setting [11]), 512 µg/mL; in assay [2] (setting [12]) it was 128 µg/mL; in assay [2] (setting [13]) it was 512 µg/mL. In addition, the MIC in assay [2] (setting [14]) is 128 µg/mL; in assay [2] (setting [15]), 256 µg/mL; in assay [2] (setting [16]), 128 µg/mL; in assay [2] (ΔramRΔompK35/36 mutant), greater than 1020 µg/mL.
Turning to `NC[C@H]1O[C@H](O[C@H]2[C@H](O)[C@@H](O[C@H]3O[C@H](CO)[C@@H](O)[C@H](N)[C@H]3O)[C@H](N)C[C@@H]2N)[C@H](O)[C@@H](O)[C@@H]1O` [Kanamycin], the MIC in assay [1] (setting [17]) is 2 µg/mL (≈ 4.13 µM); in assay [1] (setting [3]), 2 µg/mL (≈ 4.13 µM); in assay [1] (setting [4]), 4 µg/mL (≈ 8.26 µM); in assay [1] (setting [5]), 2 µg/mL (≈ 4.13 µM); in assay [1] (setting [6]), 2 µg/mL (≈ 4.13 µM); in assay [1] (setting [7]), 2 µg/mL (≈ 4.13 µM). Besides, the MIC in assay [1] (setting [8]) and in assay [1] (setting [9]) was 2 µg/mL (≈ 4.13 µM) each time.
Take `O=C1CN(/N=C/c2ccc([N+](=O)[O-])o2)C(=O)N1` [Nitrofurantoin]: the minimal inhibitory concentration (MIC) was 64 µg/mL (≈ 269 µM) in assay [1] (setting [17]); 64 µg/mL (≈ 269 µM) in assay [1] (setting [3]); greater than 512 µg/mL in assay [1] (setting [4]); greater than 512 µg/mL in assay [1] (setting [5]); 256 µg/mL (≈ 1070 µM) in assay [1] (setting [6]); 256 µg/mL (≈ 1070 µM) in assay [1] (setting [7]). Moreover, the MIC in assay [1] (setting [8]) was greater than 512 µg/mL; in assay [1] (setting [9]), greater than 512 µg/mL; in assay [2] (setting [10]) it was 256 µg/mL; in assay [2] (setting [11]), greater than 512 µg/mL; in assay [2] (setting [12]), 256 µg/mL; in assay [2] (setting [13]) it was greater than 512 µg/mL. Further, the minimum inhibitory concentration (MIC) in assay [2] (setting [14]) is 64 µg/mL; in assay [2] (setting [15]), greater than 512 µg/mL; in assay [2] (setting [16]), 64 µg/mL; in assay [2] (ΔramRΔompK35/36 mutant), greater than 512 µg/mL.
Turning to `NC[C@H]1O[C@H](O[C@H]2[C@H](O)[C@@H](O[C@H]3O[C@H](CO)[C@@H](O)[C@H](N)[C@H]3O)[C@H](N)C[C@@H]2N)[C@H](N)C[C@@H]1O` [Tobramycin], the MIC in assay [1] (setting [17]), in assay [1] (setting [3]), in assay [1] (setting [4]), in assay [1] (setting [5]), in assay [1] (setting [6]) and in assay [1] (setting [7]) was 0.5 µg/mL (≈ 1.07 µM) each time. The figures for the minimum inhibitory concentration (MIC) in assay [1] (setting [8]) and in assay [1] (setting [9]) were 1 µg/mL (≈ 2.14 µM) and 0.5 µg/mL (≈ 1.07 µM), respectively.
Colistin: the MIC in assay [1] (WT, NVT1001) is 1 µg/mL; in assay [1] (Δ35, ΔompK35 mutant), 1 µg/mL; in assay [1] (Δ35/36, ΔompK35/36 mutant) it was 1 µg/mL; in assay [1] (Δ36, ΔompK36 mutant) it was 1 µg/mL; in assay [1] (ΔramR mutant) it was 1 µg/mL; in assay [1] (ΔramRΔ35, ΔramRΔompK35 mutant) it was 1 µg/mL. For the same compound, the minimal inhibitory concentration (MIC) worked out at 1 µg/mL in assay [1] (setting [18]) and 1 µg/mL in assay [1] (ΔramRΔ36, ΔramRΔompK36 mutant).
Regarding Gentamicin, the MIC in assay [1] (WT, NVT1001) was 0.5 µg/mL; in assay [1] (Δ35, ΔompK35 mutant) it was 0.5 µg/mL; in assay [1] (Δ35/36, ΔompK35/36 mutant), 0.5 µg/mL; in assay [1] (Δ36, ΔompK36 mutant) it was 0.5 µg/mL; in assay [1] (ΔramR mutant), 0.5 µg/mL; in assay [1] (ΔramRΔ35, ΔramRΔompK35 mutant) it was 0.25 µg/mL. Besides, the MIC in assay [1] (setting [18]) came to 0.5 µg/mL; in assay [1] (ΔramRΔ36, ΔramRΔompK36 mutant), 0.5 µg/mL.
In the case of Polymyxin B, the minimal inhibitory concentration (MIC) is 2 µg/mL in assay [1] (WT, NVT1001); 2 µg/mL in assay [1] (Δ35, ΔompK35 mutant); 2 µg/mL in assay [1] (Δ35/36, ΔompK35/36 mutant); 2 µg/mL in assay [1] (Δ36, ΔompK36 mutant); 1 µg/mL in assay [1] (ΔramR mutant); 1 µg/mL in assay [1] (ΔramRΔ35, ΔramRΔompK35 mutant). The MIC in assay [1] (setting [18]) was determined as 1 µg/mL; in assay [1] (ΔramRΔ36, ΔramRΔompK36 mutant), 2 µg/mL.

One may read the MIC as the least concentration at which growth counts as inhibited.
